Where a name gives a salt, the structure may show the parent alone.
Target: T1, 5HT6-human recombinant receptor (Homo sapiens, UniProt P50406)
Assay: not given
Settings: cited from earlier work

T1 sequence (P50406 whole entry): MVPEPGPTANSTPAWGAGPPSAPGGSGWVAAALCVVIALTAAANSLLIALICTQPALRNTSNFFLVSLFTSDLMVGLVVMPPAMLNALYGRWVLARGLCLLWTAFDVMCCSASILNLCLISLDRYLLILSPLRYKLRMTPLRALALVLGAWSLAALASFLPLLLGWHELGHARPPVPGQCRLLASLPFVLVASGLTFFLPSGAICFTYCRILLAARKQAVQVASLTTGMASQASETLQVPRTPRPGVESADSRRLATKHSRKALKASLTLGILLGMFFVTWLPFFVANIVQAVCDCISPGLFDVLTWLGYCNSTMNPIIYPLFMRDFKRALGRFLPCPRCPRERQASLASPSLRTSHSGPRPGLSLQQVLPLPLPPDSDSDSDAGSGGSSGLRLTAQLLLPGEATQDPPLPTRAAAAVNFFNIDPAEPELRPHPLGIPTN

| Compound | binding for the recombinant human 5-HT6 receptor |
| --- | --- |
| CN(C)CCc1c[nH]c2ccc(NS(=O)(=O)c3ccc4c(Cl)cccc4c3)cc12 [Compound E-6837, 5-chloro-N-[3-(2-(dimethylamino)ethyl)-1H-indol-5-yl]naphthalene-2-sulphonamide] | selective and high affinity binding |

System: not given
Assay: not given
Settings: in vivo; cited from earlier work

| Compound | body weight | food intake |
| --- | --- | --- |
| CN(C)CCc1c[nH]c2ccc(NS(=O)(=O)c3ccc4c(Cl)cccc4c3)cc12 [Compound E-6837, 5-chloro-N-[3-(2-(dimethylamino)ethyl)-1H-indol-5-yl]naphthalene-2-sulphonamide] | significant body weight loss | reduction in the food intake |

Target: T1, 5HT6-human recombinant receptor
Assay: Binding to serotonin receptor 5-HT6 ([3H]-LSD radioligand, HEK-293 cell membranes)
Design: purchased Receptor Biology; host or cells: HEK-293 cells (membranes)
Settings: [3H]-LSD 2.7 nM, 60 minutes at 37° C., tests in triplicate
Experimental: Binding to Serotonin Receptor 5ht6
Cell membranes of HEK-293 cells expressing the 5HT6-human recombinant receptor were supplied by Receptor Biology. In said membranes the receptor concentration is 2.18 pmol/mg protein and the protein concentration is 9.17 mg/ml. The experimental protocol follows the method of B. L. Roth et al. [B. L. Roth et al., The Journal of Pharmacology and Experimental Therapeutics, 1994, 268, 1403] with the following slight changes. The respective part of the literature description is hereby incorporated by reference and forms part of the disclosure.
The commercial membrane is diluted (1:40 dilution) with the binding buffer: 50 mM Tris-HCl, 10 mM MgCl2, 0.5 mM EDTA (pH 7.4). The radioligand used is [^3H]-LSD at a concentration of 2.7 nM with a final volume of 200 μl. incubation is initiated by adding 100 μl of membrane suspension, (≈22.9 μg membrane protein), and is prolonged for 60 minutes at a temperature of 37° C. The incubation is ended by fast filtration in a Brandel Cell Harvester through fiber glass filters made by Schleicher & Schnell GF 3362 pretreated with a solution of polyethylenimine at 0.5%. The filters are washed three times with three milliliters of buffer Tris-HCl 50 mM pH 7.4. The filters are transferred to flasks and 5 ml of Ecoscint H liquid scintillation cocktail are added to each flask. The flasks are allowed to reach equilibrium for several hours before counting with a Wallac Winspectral 1414 scintillation counter. Non-specific binding is determined in the presence of 100 μM of serotonin, Tests were made in triplicate. The inhibition constants (Ki, nM) were calculated by non-linear regression analysis using the program EBDA/LIGAND described in Munson and Rodbard, Analytical Biochemistry, 1980, 107, 220, which is hereby incorporated by reference and forms part of the disclosure.

| Ki [nM] | Compound |
| --- | --- |
| 11.1 | O=S(=O)(Nc1ccc2c(c1)CCC2)c1c(Cl)nc2sccn12 [Compound 1, 6-Chloro-imidazo[2,1-b] thiazole-5-sulfonic acid indan-5-ylamide] |
| 12.7 | O=S(=O)(Nc1ccc2ncsc2c1)c1c(Cl)nc2sccn12 [Compound 3, 6-Chloro-imidazo[2,1-b] thiazole-5-sulfonic acid benzothiazol-6-ylamide] |
| 14.5 | Cc1nc2cc(NS(=O)(=O)c3c(Cl)nc4sccn34)ccc2s1 [Compound 4, 6-Chloro-imidazo[2,1-b] thiazole-5-sulfonic acid (2-methyl-benzothiazol-5-yl)-amide] |
| 23 | Cn1ccc2cc(NS(=O)(=O)c3c(Cl)nc4sccn34)ccc21 [Compound 15, 6-Chloro-imidazo[2,1-b] thiazole-5-sulfonic acid (1methyl-1H-indol-5-yl)-amide] |
| 8.7 | CN(C)c1ccc(NS(=O)(=O)c2c(Cl)nc3sccn23)cc1 [Compound 16, 6-Chloro-imidazo[2,1-b] thiazole-5-sulfonic acid (4-dimethylamino-phenyl)-amide] |
| 1.6 | CC(=O)N1CCc2cc(NS(=O)(=O)c3c(Cl)nc4sccn34)ccc21 [Compound 19, 6-Chloro-imidazo[2,1-b]thiazole-5-sulfonic acid (1-acetyl-2,3-dihydro-1H-indol-5-yl)-amide] |
| 12.8 | CC(=O)N1CCc2ccc(NS(=O)(=O)c3c(Cl)nc4sccn34)cc21 [Compound 20, 6-Chloro-imidazo[2,1-b]thiazole-5-sulfonic acid (1-acetyl-2,3-dihydro-1H-indol-6-yl)-amide] |
| 20 | O=S(=O)(Nc1ccc2c(c1)CCN2)c1c(Cl)nc2sccn12 [Compound 23, 6-Chloro-imidazo[2,1-b]thiazole-5-sulfonic acid (2,3-dihydro-1H-indol-5-yl)-amide hydrochloride] |
| 5.7 | O=S(=O)(Nc1ccc2[nH]ncc2c1)c1c(Cl)nc2sccn12 [Compound 25, 6-Chloro-imidazo[2,1-b]thiazole-5-sulfonic acid (1H-indazol-5-yl)-amide hydrochloride] |
| 7.1 | O=C1CCc2ccc(NS(=O)(=O)c3c(Cl)nc4sccn34)cc21 [Compound 28, 6-Chloro-imidazo[2,1-b]thiazole-5-sulfonic acid (3-oxo-indan-5-yl)-amide] |
| 19 | O=S(=O)(Nc1ccc2c(c1)CCCC2)c1c(Cl)nc2sccn12 [Compound 30, 6-Chloro-imidazo[2,1-b]thiazole-5-sulfonic acid (5,6,7,8-tetrahydro-naphthalen-2-yl)-amide] |
| 68 | O=S(=O)(Nc1ccc2c(c1)COC2)c1c(Cl)nc2sccn12 [Compound 31, 6-Chloro-imidazo[2,1-b]thiazole-5-sulfonic acid (1,3-dihydro-isobenzo furan-5-yl)-amide] |
| 5.4 | CCN(CC)c1ccc(NS(=O)(=O)c2c(Cl)nc3sccn23)cc1 [Compound 32, 6-Chloro-imidazo[2,1-b]thiazole-5-sulfonic acid (4-diethylamino-phenyl)-amide hydrochloride] |
| 7.4 | O=S(=O)(Nc1ccc2c(c1)NCC2)c1c(Cl)nc2sccn12 [Compound 34, 6-Chloro-imidazo[2,1-b]thiazole-5-sulfonic acid (2,3-dihydro-1H-indol-6-yl)-amide] |
| 10 | O=S(=O)(Nc1ccc2[nH]ccc2c1)c1c(Br)nc2sccn12 [Compound 36, 6-Bromo-imidazo[2,1-b]thiazole-5-sulfonic acid (1H-indol-5-yl)-amide] |
| 1.3 | CC(=O)N1CCc2cc(NS(=O)(=O)c3c(Br)nc4sccn34)ccc21 [Compound 37, 6-Bromo-imidazo[2,1-b]thiazole-5-sulfonic acid (1-acetyl-2,3-dihydro-1H-indol-5-yl)-amide] |
| 37.2 | CC(=O)N1CCc2ccc(NS(=O)(=O)c3c(Br)nc4sccn34)cc21 [Compound 38, 6-Bromo-imidazo[2,1-b]thiazole-5-sulfonic acid (1-acetyl-2,3-dihydro-1H-indol-6-yl)-amide] |
| 4.9 | O=C1CCc2ccc(NS(=O)(=O)c3c(Br)nc4sccn34)cc21 [Compound 41, 6-Bromo-imidazo[2,1-b]thiazole-5-sulfonic acid (3-oxo-indan-5-yl)-amide hydrochloride] |
| 6.6 | CC(C)(C)OC(=O)n1ncc2cc(NS(=O)(=O)c3c(Br)nc4sccn34)ccc21 [Compound 60, 5-(6-Bromo-imidazo[2,1-b]thiazole-5-sulfonylamino)-indazole-1-carboxylic acid tert-butyl ester] |
